Reference: patent US9518033B2, “(4E)-4-(4-substituted benzylideneamino)-2,3-dihydro-3-substituted-2-thioxothiazole-5-carbonitriles as A2AR antagonist and process for preparation thereof” (COUNCIL OF SCIENTIFIC & INDUSTRIAL RESEARCH, priority 2013, dated 2016)
Where “and” joins values, the source holds several entries; their conditions need not be identical. Equal entries are not always repeated.

Assays:
human A2AR = biological target: T1, human A2AR (Homo sapiens, UniProt P29274); test: Radioligand competitive binding assay, [3H] ZM 241385 displacement; details: for binding affinity and selectivity (in words): A2AR over A1R; for Ki: membranes of transfected HEK 293T cells, 1 nM [3H] ZM 241385, read-out: Ki A2A; for A1/A2A (selectivity): ratio Ki A1 / Ki A2A
T1 construct: expressed in transfected cells; host or cells: HEK 293T
Procedure: Cells were washed twice with ice-cold PBS (pH 7.4). Pellet of washed cells was resuspended in hypotonic lysis buffer (10 mM NaCl, 2 mM MgCl2, 1 mM DTT, 10 mM Hepes, 2 mM PMSF, pH 7.4) and sonicated (4 cycles of 10 s duration each). Homogenate were centrifuged at 2,500 rpm for 10 minutes at 4° C. Resulting supernatants was again centrifuged at 38,000 rpm for 30 minutes at 4° C. Pellets obtained were resuspended in Tris-HCl (pH 7.4) buffer. […] Aliquots of membrane proteins from both A2AR and A1R were rapidly frozen and stored at −20° C. Radioligand [^3H] […] DPCPX were purchased from American Radiolabeled Chemicals, St. Louis, USA.
About 10 μg of membrane protein was added to each well of a 96-well filter plate. Incubation buffer containing adenosine deaminase (2.5 U/ml) was added to the membrane protein and incubated at 37° C. for 1 h, to remove endogenous adenosine. Varying concentrations (1 pM to 1 μM) of test compounds of general formula A was added in duplicate and volume was adjusted to 50 μl by adding incubation buffer. […] Filter plates were incubated at 26° C. for 30 minutes and reaction was terminated by rapid filtration of unbound radioligands. Filters containing ligand bound receptors were washed three times with ice-cold washing buffer to completely remove any unbound radioligand or receptor. Finally, 100 μl of scintillation fluid was added to each well and incubated overnight at room temperature. β-counts emitted from bound radioligands ([^3H] ZM241385 and [^3H] DPCPX) were counted using β-counter. Duplicate values of β-counts per minute at corresponding concentrations (1 pM to 1 μM) were added to the data sheet of graph pad prism 4.0. Concentration values were considered as X-values and counts per minute were considered as Y-values (in duplicate). X-values were transformed into log X and Ki value was calculated using nonlinear regression (curve fit program).

human A1R = biological target: T2, human A1R (Homo sapiens, UniProt P30542); test: Radioligand competitive binding assay, [3H] DPCPX displacement; details: membranes of transfected HEK 293T cells, 1 nM [3H] DPCPX; read-out: Ki A1
T2 construct: expressed in transfected cells; host or cells: HEK 293T
T2 sequence (P30542 1-326): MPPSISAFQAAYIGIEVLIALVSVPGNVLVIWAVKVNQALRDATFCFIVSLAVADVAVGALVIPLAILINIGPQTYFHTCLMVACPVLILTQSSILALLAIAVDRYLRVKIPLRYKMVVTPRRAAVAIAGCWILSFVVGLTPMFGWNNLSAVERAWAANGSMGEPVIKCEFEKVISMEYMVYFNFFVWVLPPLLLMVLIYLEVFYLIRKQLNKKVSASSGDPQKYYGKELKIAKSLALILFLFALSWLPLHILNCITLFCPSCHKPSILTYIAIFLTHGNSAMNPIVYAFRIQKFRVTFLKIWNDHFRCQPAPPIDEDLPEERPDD
Procedure: About 1×10^6 cells per ml of transfected HEK 293T cells with human A2AR and A1R were centrifuged at 2,500 rpm for 2 minutes in 15 ml centrifuge tubes. Cells were washed twice with ice-cold PBS (pH 7.4). Pellet of washed cells was resuspended in hypotonic lysis buffer (10 mM NaCl, 2 mM MgCl2, 1 mM DTT, 10 mM Hepes, 2 mM PMSF, pH 7.4) and sonicated (4 cycles of 10 s duration each). Homogenate were centrifuged at 2,500 rpm for 10 minutes at 4° C. Resulting supernatants was again centrifuged at 38,000 rpm for 30 minutes at 4° C. Pellets obtained were resuspended in Tris-HCl (pH 7.4) buffer. Membrane protein concentrations were determined using Lowry method (Lowry et al., 1951). Aliquots of membrane proteins from both A2AR and A1R were rapidly frozen and stored at −20° C. Radioligand [^3H] ZM 241385 and [^3H] DPCPX were purchased from American Radiolabeled Chemicals, St. Louis, USA.
About 10 μg of membrane protein was added to each well of a 96-well filter plate. Incubation buffer containing adenosine deaminase (2.5 U/ml) was added to the membrane protein and incubated at 37° C. for 1 h, to remove endogenous adenosine. Varying concentrations (1 pM to 1 μM) of test compounds of general formula A was added in duplicate and volume was adjusted to 50 μl by adding incubation buffer. Further, constant concentration of radioligands (1 nM for [^3H] ZM 241385 and 1 nM of [^3H] DPCPX) was added to respective wells and final volume was adjusted to 200 μl by adding the incubation buffer. Filter plates were incubated at 26° C. for 30 minutes and reaction was terminated by rapid filtration of unbound radioligands. Filters containing ligand bound receptors were washed three times with ice-cold washing buffer to completely remove any unbound radioligand or receptor. Finally, 100 μl of scintillation fluid was added to each well and incubated overnight at room temperature. β-counts emitted from bound radioligands ([^3H] ZM241385 and [^3H] DPCPX) were counted using β-counter. Duplicate values of β-counts per minute at corresponding concentrations (1 pM to 1 μM) were added to the data sheet of graph pad prism 4.0. Concentration values were considered as X-values and counts per minute were considered as Y-values (in duplicate). X-values were transformed into log X and Ki value was calculated using nonlinear regression (curve fit program). The calculated Ki values for A2AR and A1R are given bellow (table 1).

human A2A receptors = biological target: T3, human A2A receptors (Homo sapiens, UniProt P29274); test: cAMP functional assay in NECA stimulated HEK293T cells; assay type: cell-based
T3 construct: expressed in transfected cells; host or cells: HEK 293T
Procedure: Standard curve was prepared using Logit-Log Paper plot by drawing percent bound (B/Bo) versus concentration of cAMP for the standards. The concentration of the cAMP in the samples was determined by interpolation.

[1] = system: haloperidol induced catalepsy; test: Haloperidol induced catalepsy in mice; assay type: in vivo, Swiss Albino male mice; details: for catalepsy score: haloperidol 2.5 mg/kg, after 120 min
Procedure: Adult Swiss Albino male mice (4-6 weeks, 20-30 g) were pro-cured from National Institute of Communicable Diseases, Delhi, India and were kept under controlled conditions of temperature (22±1° C.), humidity (60±5%), and illumination (12 h light; 12 h darkness) at the animal house, Dr. B. R. Ambedkar Centre for Bio-medical Research, University of Delhi, Delhi, India. The experimental protocol met the National Guidelines on the ‘Proper Care and Use of Animals in Laboratory Research’ (Indian National Science Academy, New Delhi) and was approved by the Animal Ethics Committee of the department. The procedures adhered to the NIH Guidelines for the Care and Use of Laboratory Animals.
Double distilled filtered and deionized water (Milli-Q-system Waters, Milford, Mass.) was used through out the study. […] Mice were divided into seven groups of four mice each. […] Saline and 1% acacia in saline were injected to two control groups.
The inability of an animal to correct an externally imposed posture (Catalepsy score) was measured at different time intervals with both limbs on a square wooden block (3 cm high) by placing the animals on a flat horizontal surface. The length of time that animals held the bar without any voluntary movement was recorded, with a cutoff time of 3 min. Catalepsy score of each mice in a group was taken to compute the mean value of the group.

[2] = 10 mg/kg ip pre-treatment, mean±SEM, n=4

T1 sequence (P29274 whole entry): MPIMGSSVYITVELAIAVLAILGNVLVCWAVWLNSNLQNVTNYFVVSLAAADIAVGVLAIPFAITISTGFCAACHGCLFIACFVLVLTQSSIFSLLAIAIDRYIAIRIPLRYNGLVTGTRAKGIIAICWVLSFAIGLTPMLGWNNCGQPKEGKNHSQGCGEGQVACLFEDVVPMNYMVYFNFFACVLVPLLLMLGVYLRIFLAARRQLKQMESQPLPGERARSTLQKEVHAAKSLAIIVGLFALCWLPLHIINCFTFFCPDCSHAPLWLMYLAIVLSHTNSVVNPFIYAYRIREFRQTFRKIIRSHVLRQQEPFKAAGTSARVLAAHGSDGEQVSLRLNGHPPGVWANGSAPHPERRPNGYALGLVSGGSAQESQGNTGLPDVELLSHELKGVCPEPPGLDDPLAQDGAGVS
T3 sequence (P29274 whole entry): as above

Compound	Ki (human A2AR)	A1/A2A (selectivity) (human A2AR)	Ki (human A1R)	other results
CCCCn1c(/N=C/c2ccc(Cl)cc2)c(C#N)sc1=S [Compound 2h]	9.6 nM	2565 and 2565.62	24600 nM	binding affinity and selectivity (in words) (human A2AR): both high binding affinity and selectivity
Nc1nc2c(cnn2CCc2ccccc2)c2nc(-c3ccco3)nn12 [SCH58261, reference compound]				selectivity to A2AR (human A2AR; reference SCH58261): 483 fold; cAMP concentration (human A2A receptors): 0.55 pmol/mL; catalepsy score [1, 2]: 0.65±0.125; catalepsy score ([1]; 10 mg/kg ip pre-treatment, mean±SEM, n=4, listed as SCH 58261): 0.625±0.125
N#Cc1sc(=S)n(-c2ccccc2)c1/N=C/c1ccc(F)cc1 [Compound 2e, (4E)-4-(4-flurobenzylideneamino)-3-phenyl-2,3-dihydro-2-thioxothiazole-5-carbonitrile]	0.0047 nM	0.13		
CCn1c(/N=C/c2ccc(Cl)cc2)c(C#N)sc1=S [Compound 2f, (4E)-4-(4-chlorobenzylideneamino)-3-ethyl-2,3-dihydro-2-thioxothiazole-5-carbonitrile]		13.76		
CCCn1c(/N=C/c2ccc(Cl)cc2)c(C#N)sc1=S [Compound 2g, (4E)4-(4-chlorobenzylideneamino)-3-propyl-2,3-dihydro-2-thioxothiazole-5-carbonitrile]	54.8 nM	0.042	2.32 nM	
CCCn1c(/N=C/c2ccc(Br)cc2)c(C#N)sc1=S [Compound 2k, (4E)4-(4-bromobenzylideneamino)-3-propyl-2,3-dihydro-2-thioxothiazole-5-carbonitrile]	1.8 nM	337.05	607 nM	
N#Cc1sc(=S)n(CCc2ccccc2)c1/N=C/c1ccc(Br)cc1 [Compound 2m, (4E)4-(4-bromobenzylideneamino)-3-phenylethyl-2,3-dihydro-2-thioxothiazole-5-carbonitrile]	0.067 nM	3.73	0.25 nM	
N#Cc1sc(=S)n(CCc2ccccc2)c1N=Cc1ccc(F)cc1 [Compound 2d, (4E)-4-(4-flurobenzylideneamino)-3-phenylethyl-2,3-dihydro-2-thioxothiazole-5-carbonitrile]	2.64 nM	336.81	889 nM	
N#Cc1sc(=S)n(-c2ccccc2)c1/N=C/c1ccc(Cl)cc1 [Compound 2i, (4E)4-(4-chlorobenzylideneamino)-3-phenyl-2,3-dihydro-2-thioxothiazole-5-carbonitrile]	0.14 nM	2947 and 2947.85	413 nM	binding affinity and selectivity (in words) (human A2AR): both high binding affinity and selectivity; melting point: 187 to 189 °C
N#Cc1sc(=S)n(-c2ccccc2)c1/N=C/c1ccc(Br)cc1 [Compound 2n, (4E)4-(4-bromobenzylideneamino)-3-phenyl-2,3-dihydro-2-thioxothiazole-5-carbonitrile]	0.004 nM and 0.0042 nM		186 nM	catalepsy score [1, 2]: 0.75±0.144; catalepsy score ([1]; pre-treatment at 5, 10, 15, 20 mg/kg): 0.75±0.140; catalepsy score, compound alone ([1]; without haloperidol, up to 120 minutes): zero; melting point: 185 to 187 °C
CCn1c(/N=C/c2ccc(Br)cc2)c(C#N)sc1=S [Compound 2j, (4E)-4-(4-Bromobenzylideneamino)-3-ethyl-2,3-dihydro-2-thioxothiazole-5-carbonitrile]	0.01 nM	0.074		
CCn1c(/N=C/c2ccc(F)cc2)c(C#N)sc1=S [Compound 2a, (4E)-4-(4-fluorobenzylideneamino)-3-ethyl-2,3-dihydro-2-thioxothiazole-5-carbonitrile]	11 nM	0.000053		
CCCCn1c(/N=C/c2ccc(Br)cc2)c(C#N)sc1=S [Compound 2l, (4E)-4-(4-bromobenzylideneamino)-3-butyl-2,3-dihydro-2-thioxothiazole-5-carbonitrile]	7.61 nM	0.013	0.1 nM	
CCCn1c(/N=C/c2ccc(F)cc2)c(C#N)sc1=S [Compound 2b, (4E)4-(4-fluorobenzylideneamino)-3-propyl-2,3-dihydro-2-thioxothiazole-5-carbonitrile]	0.03 nM	3393.3	102 nM	binding affinity and selectivity (in words) (human A2AR): both high binding affinity and selectivity
CCCCn1c(N=Cc2ccc(F)cc2)c(C#N)sc1=S [Compound 2c, (4E)-4-flurobenzylideneamino)-3-butyl-2,3-dihydro-2-thioxothiazole-5-carbonitrile]	0.027 nM	618.51	16.7 nM	
